Laboratory results: ChEMBL document CHEMBL1201862, “PubChem BioAssay data set” (2004)
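The compound was tested at five concentrations on cells cultured in 96-well plates, with a 48-hour exposure period. At the GI50, growth is halved.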 Active and inactive are the calls of the source. Cut-off read from the data, not from the text of the source: active = GI50 up to about 1.1 µM and inactive = higher.

Experiments:
Test in all cases: inhibition of tumour cell growth, NCI panel, 48 h
T47D = system: T47D
DLD-1 = system: DLD-1
DMS-114 = system: DMS-114
DMS-273 = system: DMS-273
HOP-18 = system: HOP-18
KM-20L2 = system: KM-20L2
RXF 631 = system: RXF 631
SNB-78 = system: SNB-78
XF498 = system: XF498

COc1cc2c(NCCN(C)C)nc3c4cc5c(cc4ccc3c2cc1OC)OCO5
GI50 (T47D): 6.15 µM (inactive)

N=c1oc2ccccc2cc1-c1nc2ccccc2c(=O)[nH]1
GI50 (T47D): > 100 µM (inactive)

CC(C)(C)n1nc(C2CC2)cc1NC(=O)Nc1ccc(Cl)cc1
GI50 (T47D): > 100 µM (inactive)

CN(C)CCNC(=O)c1cccc2nc3c(ccc4ccccc43)nc12
GI50 (DLD-1): 1.79 µM (inactive) | GI50 (DMS-114): 2.69 µM (inactive) | GI50 (DMS-273): 1.54 µM (inactive) | GI50 (HOP-18): 6.53 µM (inactive) | GI50 (KM-20L2): 1.51 µM (inactive) | GI50 (RXF 631): 1.02 µM (active) | GI50 (SNB-78): 5.16 µM (inactive) | GI50 (T47D): 6.11 µM (inactive)

O=c1c2cc([N+](=O)[O-])cnc2sn1-c1ccc(Br)cc1
GI50 (T47D): 6.32 µM (inactive)

Cc1ccc(/C=C2\NC(=S)NC2=O)cc1
GI50 (T47D): > 100 µM (inactive)

O=C1NC(N2CCCCC2)=N/C1=C\c1ccc(Cl)cc1
GI50 (T47D): 41.5 µM (inactive)

O=c1c2cc([N+](=O)[O-])ccc2n2n1CCCC2
GI50 (T47D): > 100 µM (inactive)

O=c1n(Cc2ccccc2)c(=O)n2c(=O)n(Cc3ccccc3)c(=O)n12
GI50 (T47D): > 100 µM (inactive)

COc1cc2c3c(n(C)c(=O)c2cc1OC)-c1cc2c(cc1/C3=C\CCCI)OCO2
GI50 (T47D): 0.7 µM (active)

CNC(C#N)c1ccc(OC)cc1 (stereo unspecified)
GI50 (T47D): 61.5 µM (inactive)

CCC/C(C)=N/NC(=S)SC.CCC/C(C)=N/NC(=S)SC.[Zn+2]
GI50 (T47D): 11.5 µM (inactive)

Cc1c2ccccc2c(C)n2c1nc1ccccc12
GI50 (T47D): 17.5 µM (inactive)

Nc1c(C(=O)Nc2ccccc2)[n+]([O-])c2ccccc2[n+]1[O-]
GI50 (DLD-1): 15.6 µM (inactive) | GI50 (DMS-114): 9.62 µM (inactive) | GI50 (DMS-273): 20.6 µM (inactive) | GI50 (HOP-18): 13.5 µM (inactive) | GI50 (KM-20L2): 17.7 µM (inactive) | GI50 (SNB-78): 16.9 µM (inactive) | GI50 (XF498): 16.6 µM (inactive)

CC(C)(C)[Si](C)(C)OCC1CCC(n2cnc3c(NC(=O)c4ccccc4)ncnc32)O1 (stereo unspecified)
GI50 (T47D): 26.4 µM (inactive)

CC(=O)OCC(OC(C)=O)C(OC(C)=O)C(OC(C)=O)C(C=NN(C(C)=O)S(=O)(=O)c1ccc(/C=C2\NC(=O)N(C)C2=O)cc1)OC(C)=O (stereo unspecified)
GI50 (T47D): 15.9 µM (inactive)

O=C(/C=C/c1ccc(Cl)c(Cl)c1)c1ccc(F)cc1
GI50 (DLD-1): 14.4 µM (inactive) | GI50 (DMS-114): 14.7 µM (inactive) | GI50 (DMS-273): 12.5 µM (inactive) | GI50 (HOP-18): 16.9 µM (inactive) | GI50 (KM-20L2): 16.5 µM (inactive) | GI50 (RXF 631): 50 µM (inactive) | GI50 (SNB-78): 20.7 µM (inactive)

O=C(CSc1nnc(-c2ccccn2)s1)N/N=C/c1ccc([N+](=O)[O-])cc1
GI50 (T47D): 37.1 µM (inactive)

O=[N+]([O-])/C(C(Cl)=C(Cl)Cl)=C(\N1CCCCC1)n1cncn1
GI50 (T47D): 14.8 µM (inactive)

CCN(CC)CCCC(C)Nc1ccnc2ccc3nn(C)nc3c12 (stereo unspecified)
GI50 (DLD-1): 55 µM (inactive) | GI50 (DMS-273): 26.4 µM (inactive) | GI50 (HOP-18): > 100 µM (inactive) | GI50 (KM-20L2): 33 µM (inactive) | GI50 (SNB-78): 52.7 µM (inactive)

Cc1ccc2nc(C(=O)O)c(=O)[nH]c2c1
GI50 (T47D): > 100 µM (inactive)

Cc1cc(N(CCC#N)CCC#N)ccc1/C=C(/NC(=O)/C=C/c1ccccc1)C(N)=O
GI50 (DLD-1): > 100 µM (inactive) | GI50 (DMS-114): > 100 µM (inactive) | GI50 (DMS-273): > 100 µM (inactive) | GI50 (KM-20L2): > 100 µM (inactive) | GI50 (SNB-78): 97.1 µM (inactive) | GI50 (XF498): 39.7 µM (inactive)

CC(=O)N1CCN(C23OC4(N5CCN(C(C)=O)CC5)C5C6CC(C7C6C4C72)C53)CC1 (stereo unspecified)
GI50 (T47D): > 100 µM (inactive)

Cn1cc(S(=O)(=O)NC(=O)Nc2ccc(Cl)cc2)c(=O)c2ccc(Cl)cc21
GI50 (T47D): > 100 µM (inactive)

O=C1CC(=O)NC(NN2C(=O)/C(=C/c3ccc(Cl)cc3)N=C2c2ccccc2)=N1
GI50 (T47D): 28.6 µM (inactive)

Cc1c2c(C#N)nccc2c(C)c2c1c1ccccc1n2Cc1ccccc1
GI50 (T47D): 63.5 µM (inactive)

O=[N+]([O-])c1cccc2nc3ccccc3c(NCCCN3CCCCC3)c12
GI50 (T47D): 0.0179 µM (active)

CC1(C=O)CCC23COC4(CCC5C6(C)CCC(OC7OCC(OC8OC(CO)C(O)C(OC9OC(CO)C(O)C(O)C9O)C8OC8OCC(O)C(O)C8O)C(O)C7OC7OC(CO)C(O)C(O)C7O)C(C)(C)C6CCC5(C)C4(C)CC2O)C3C1 (stereo unspecified)
GI50 (T47D): 1.61 µM (inactive)

Cc1[nH]c2ncn3[nH]c(=S)nc3c2c1Cc1ccccc1
GI50 (T47D): 28.8 µM (inactive)

COc1cc(-c2oc3c(OC)c(O)cc(O)c3c(=O)c2OC)ccc1O
GI50 (T47D): 2.38 µM (inactive)

COC(=O)/C(=C\c1ccc(N(CCC#N)CCC#N)cc1)NC(=O)c1cc([N+](=O)[O-])ccc1Cl
GI50 (DLD-1): > 100 µM (inactive) | GI50 (DMS-114): > 100 µM (inactive) | GI50 (DMS-273): > 100 µM (inactive) | GI50 (HOP-18): > 100 µM (inactive) | GI50 (KM-20L2): > 100 µM (inactive) | GI50 (SNB-78): > 100 µM (inactive)

O=C1CC(C(OCc2ccccc2)C(OCc2ccccc2)C(COCc2ccccc2)OCc2ccccc2)CC(=O)N1 (stereo unspecified)
GI50 (T47D): 26.1 µM (inactive)

CCOc1ccc(NC(=O)C2=C(C)NC(C)=C(C(=O)Nc3ccc(OCC)cc3)C2c2ccc(O)c(OC)c2)cc1
GI50 (DLD-1): 96.2 µM (inactive) | GI50 (DMS-114): 56.5 µM (inactive) | GI50 (KM-20L2): > 100 µM (inactive) | GI50 (RXF 631): 53.5 µM (inactive) | GI50 (SNB-78): 44.1 µM (inactive) | GI50 (XF498): 18.5 µM (inactive)

Nc1ccc(-c2nc3cc(F)ccc3s2)cc1CO
GI50 (T47D): 0.0116 µM (active)

Cc1c(-c2ccccc2)c(C#N)c2nnn(-c3ccc(Cl)cc3)c(=O)n12
GI50 (T47D): 6.14 µM (inactive)

C/C(=N\NC(=S)N1CCC(N2CCCCC2)CC1)c1ccccn1
GI50 (DLD-1): 39.7 µM (inactive) | GI50 (DMS-114): 0.522 µM (active) | GI50 (DMS-273): 2.81 µM (inactive) | GI50 (HOP-18): 3.8 µM (inactive) | GI50 (KM-20L2): 4.46 µM (inactive) | GI50 (SNB-78): 11.5 µM (inactive) | GI50 (T47D): 1.39 µM (inactive) | GI50 (XF498): 7 µM (inactive)

O=C(Nc1ccn(C2CC(O)C(CO)O2)c(=O)n1)c1ccccc1 (stereo unspecified)
GI50 (T47D): > 100 µM (inactive)

O=C1OCCC1(Cc1ccc(Cl)cc1)Cc1ccc(Cl)cc1
GI50 (DLD-1): > 100 µM (inactive) | GI50 (SNB-78): 42.3 µM (inactive) | GI50 (XF498): 15.9 µM (inactive)

CCOC1CN=C(Nc2cccc3ccccc23)S1 (stereo unspecified)
GI50 (T47D): > 10 µM (inactive)
